Assay results from patent US20160039852A1, “THERAPEUTIC USES OF BISPHOSPHONATES” (THE UNIVERSITY OF SHEFFIELD, priority 2013, published 2016).
Entries after “also recorded” stand apart in the source; their conditions may differ.

Legend:
[1] = system: 5T33 Multiple Myeloma line; test: γH2AX DNA damage foci in 5T33 multiple myeloma line after irradiation; format: cell-based, murine; settings: 1 μM Zol for 3 days prior to 1Gy, γH2AX 4 h later
Protocol: 5T33MM were exposed to 1 μM Zol for 3 days prior to irradiation at 1Gy and assessment of γH2AX 4 h later (Zol). UI, are hMSC non irradiated, PBS, are hMSC irradiated in absence of Zol. Data are expressed as mean±SEM and were analysed by one way ANOVA and Bonferroni post-test for multiple comparison *p<0.05, **p<0.01, ***p<0.001
DNA damage was induced by exposing hMSC to ^137Cs Gamma source. Cells were washed with PBS and fixed with 4% Para-formaldehyde for 15mins. Cells were then washed with PBS permeabilized with 0.5% Triton-X (Sigma, UK) for 2mins and blocked with 5% normal goat serum (DAKO, Glostrup, Denmark) in PBS for 1 hr. This was followed by incubation with primary antibody, anti-phospho histone H2AX (Ser139) (Millipore, Massachusetts, USA) used at 1:800 in 5% normal goat serum, overnight at 4° C. Cells were then washed in PBS and incubated in secondary Anti mouse IgG Fluorescein Isothiocyanate (FITC) conjugated (Insight Biotechnology, Santa Cruz, USA) at 1:200 in PBS for 1 hour at room temperature. The cover-slips were mounted on slides with mounting media (VectaShield) containing 4′,6-diamidino-2-phenylindole (DAPI) to stain the nuclei. […] Five to seven fields consisting of 25 cells in total were randomly selected from a tile scan (20×) and individual cells viewed at 63× were then scored for γH2AX DNA damage foci using ImageJ 1.45 software (http://rsbweb.nih.gov/ij/).

[2] = system: murine and human cancer lines (PC3, 178-2 BMA, MDA-MB231, 5TGM1, 5T33); test: γH2AX foci in cancer lines following irradiation; format: cell-based; settings: irradiation (1Gy), Zol, 0, 4, 12, 24 and 48 h post irradiation
Protocol: (C-H) Number of γH2AX foci enumerated in (C) hMSC, (D) PC3, (E) 178-2 BMA, (F) MDA-MB231,
(G) 5TGM1 and (H) 5T33 lines following irradiation (1Gy) in the presence or absence of Zol ([…]) and assessed at 0, 4, 12, 24 and 48 h post irradiation (n=3).
Human prostate cancer cell line PC3 cells were maintained in DMEM with Glutamax (Gibco) containing 10% FBS (Sigma), 1% penicillin (100units/ml)/streptomycin (100 μg/ml) (Sigma). Mouse prostate cancer cell line 178-2 BMA was cultured as described above with the addition of 0.1 mM 4-(2-hydroxyethyl)-1-piperazineethanesulfonic acid (Life Technologies, Gaithersburg, USA) and 0.01 mM sodium pyruvate (PAA Laboratories). Human breast cancer cell line MDA-MB-231 was cultured in RPMI 1640 with Glutamax supplemented with 10% FBS (Sigma), 0.01 mM sodium pyruvate (PAA laboratories) and penicillin (1 units/ml) and streptomycin (1 μg/ml) (Sigma). […]
DNA damage was induced by exposing hMSC to ^137Cs Gamma source. […] Five to seven fields consisting of 25 cells in total were randomly selected from a tile scan (20×) and individual cells viewed at 63× were then scored for γH2AX DNA damage foci using ImageJ 1.45 software (http://rsbweb.nih.gov/ij/).

[3] = system: normal human dermal fibroblasts; test: Human dermal fibroblast growth, cumulative population doublings; format: cell-based
From the text: Cultures (n=3) grown in PBS senesced after 17-21 population doublings (PDs) (square symbols) whereas cultures grown in presence of Zol were still proliferating after 27-34 PDs (triangle symbols).

[4] = system: normal human dermal fibroblasts; test: γH2AX DNA damage foci in human dermal fibroblasts after irradiation; format: cell-based; settings: 1Gy, Zol (1 μM)
Protocol: (B) Number of yH2AX DNA damage foci in human dermal fibroblasts (n=4 cultures) not irradiated (UI) or exposed to irradiation (IR) 1Gy in the presence or absence of Zol (1 μM) and with the addition of Farnesol (FOH) or geranylgeraniol (GGOH).

[5] = system: human mesenchymal stem cells (hMSC); test: Colony Forming Unit-Fibroblast assay (CFU-F), clonogenic ability of hMSC; format: cell-based; settings: 14 days, listed as Zol
Protocol: Human MSC from established cultures were plated at 10 cells/cm^2 in duplicates in MSC medium. The plates were incubated for 14 days at 37° C. in 5% carbon dioxide in air. At day 14 cultures were stained with Wright's Giemsa stain (VWR International, Leicestershire, UK). Briefly, media was aspirated and the plates were washed with PBS (Gibco). The plates were air dried for 5 minutes and fixed with methanol (Fisher Scientific, Loughborough, UK) for 5 minutes. Wright's Geimsa stain (VWR International) was thereafter added to the plates for 5 minutes and then plates were washed under running tap water. The purple stained colonies were counted using an inverted light microscope (Leica Microsystems, UK). Colonies containing a minimum of 50 cells were considered as one Colony forming unit-fibroblast (CFU-F).

Question: How did the “DNA repair capacity (γH2AX foci)” value [1] turn out when O=P(O)(O)C(O)(Cn1ccnc1)P(=O)(O)O [Zoledronate] was run?
Answer: does not enhance the DNA repair capacity

Question: And the “DNA repair capacity (γH2AX foci)” value [2]?
Answer: does not enhance the DNA repair capacity

Question: And the “lifespan of normal human dermal fibroblasts” value [3]?
Answer: extends lifespan

Question: And the “population doublings after which cultures were still proliferating” value ([3]; human dermal fibroblasts in presence of Zol, PBS cultures senesced after 17-21 PDs, n=3)?
Answer: 27-34 PDs

Question: What about the “DNA repair ability following irradiation (γH2AX foci)” value [4] of the same compound?
Answer: enhances DNA repair ability

Question: What about the “number of clonogenic progenitors (CFU-F)” value ([5]; hMSC at passage 8, not irradiated, versus PBS control) of the same compound?
Answer: significant increase; also recorded: higher clonogenic ability

Question: And the “number of CFU-F after irradiation (clonogenic ability)” value ([5]; hMSC irradiated at 1, 3 and 5Gy versus non irradiated, in presence of Zol)?
Answer: no significant difference; also recorded: complete rescue of the clonogenic ability
